Results published in ChEMBL document CHEMBL1201862, “PubChem BioAssay data set” (2004).
Calls of active or inactive are those of the source.

Key:
[1] = biological target: Peroxisome proliferator-activated receptor gamma/Nuclear receptor coactivator 1 (Homo sapiens, UniProt P37231); test: TR-FRET dose response biochemical High Throughput Screening assay for agonists of the steroid receptor coactivator 1 (SRC-1) recruitment by the peroxisome proliferator-activated receptor gamma (PPAR gamma): non-selective agonists. [Related pubchem assays (depositor defined):AID1300, AID1808, AID504735, AID631]; format: protein assay
[2] = biological target: Peroxisome proliferator-activated receptor gamma/Nuclear receptor coactivator 2 (Homo sapiens, UniProt P37231); test: (§1) TR-FRET dose response biochemical High Throughput Screening assay for agonists of the steroid receptor coactivator 2 (SRC-2) recruitment by the peroxisome proliferator-activated receptor gamma (PPAR gamma): non-selective agonists. [Related pubchem assays: 1297, 1032 ]; format: functional
[3] = biological target: Peroxisome proliferator-activated receptor gamma/Nuclear receptor coactivator 3 (Homo sapiens, UniProt P37231); test: as §1, with “3 (SRC-3)” for “2 (SRC-2)”, “1301 (Confirmation screen.), 1048 (Primary screen.)]” for “1297, 1032 ]”; format: functional
Exodeoxyribonuclease V = Exodeoxyribonuclease V (Escherichia coli (strain K12), UniProt P04993+P07648+P08394); test: RecBCD inhibition via phage-restricted bacterial growth – absorbance, V66 E. coli, mutant T4 phage, counter-screen for AddAB inhibitor project, dose response (AID 492957); format: functional, cell-based, Escherichia coli str. K-12 substr. MG1655
[4] = Counterscreen for AddAB inhibitors: absorbance-based bacterial cell-based high throughput dose response assay for inhibitors of bacterial viability. [Related pubchem assays (depositor defined):AID435030, AID449728, AID449731, AID488942, AID488955, AID488956]; format: functional
[5] = biological target: T1, Alkaline phosphatase, tissue-nonspecific isozyme (Homo sapiens, UniProt P05186); test: TNAP enzyme inhibition by screening hits, dose response, selectivity assay for mouse IAP inhibitor project, biochemical, human TNAP, uHTS hits (AID 488906); format: functional
T1 sequence (P05186 whole entry): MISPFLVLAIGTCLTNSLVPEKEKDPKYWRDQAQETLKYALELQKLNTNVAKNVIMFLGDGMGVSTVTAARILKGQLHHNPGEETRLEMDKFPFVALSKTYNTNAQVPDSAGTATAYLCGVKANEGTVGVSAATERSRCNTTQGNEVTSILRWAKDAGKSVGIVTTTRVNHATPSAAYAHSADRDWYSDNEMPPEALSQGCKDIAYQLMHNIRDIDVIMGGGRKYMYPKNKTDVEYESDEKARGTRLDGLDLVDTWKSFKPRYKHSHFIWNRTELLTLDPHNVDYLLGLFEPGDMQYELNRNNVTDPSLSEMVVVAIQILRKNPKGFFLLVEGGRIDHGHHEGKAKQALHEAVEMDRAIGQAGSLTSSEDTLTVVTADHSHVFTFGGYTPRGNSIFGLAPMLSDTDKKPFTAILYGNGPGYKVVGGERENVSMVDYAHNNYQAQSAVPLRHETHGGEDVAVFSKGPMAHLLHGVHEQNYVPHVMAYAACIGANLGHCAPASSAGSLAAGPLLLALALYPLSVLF

[6] = biological target: Intestinal-type alkaline phosphatase (Mus musculus, UniProt P24822); test: PubChem AID 488785; format: functional
[7] = biological target: Intestinal-type alkaline phosphatase (Homo sapiens, UniProt P09923); test: inhibition of human intestinal alkaline phosphatase – biochemical, dose response (AID 488876); format: functional
Fatty acid synthase [8] = biological target: T2, Fatty acid synthase (Homo sapiens, UniProt P49327); test: inhibition of human FAS-TE enzyme activity – biochemical, endpoint fluorescence intensity, uHTS hits, dose response (AID 624327); format: functional;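 note: fluorescence from hydrolysis of an O-methyl fluorescein acyl ester substrate by the enzyme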
T2 sequence (P49327 whole entry): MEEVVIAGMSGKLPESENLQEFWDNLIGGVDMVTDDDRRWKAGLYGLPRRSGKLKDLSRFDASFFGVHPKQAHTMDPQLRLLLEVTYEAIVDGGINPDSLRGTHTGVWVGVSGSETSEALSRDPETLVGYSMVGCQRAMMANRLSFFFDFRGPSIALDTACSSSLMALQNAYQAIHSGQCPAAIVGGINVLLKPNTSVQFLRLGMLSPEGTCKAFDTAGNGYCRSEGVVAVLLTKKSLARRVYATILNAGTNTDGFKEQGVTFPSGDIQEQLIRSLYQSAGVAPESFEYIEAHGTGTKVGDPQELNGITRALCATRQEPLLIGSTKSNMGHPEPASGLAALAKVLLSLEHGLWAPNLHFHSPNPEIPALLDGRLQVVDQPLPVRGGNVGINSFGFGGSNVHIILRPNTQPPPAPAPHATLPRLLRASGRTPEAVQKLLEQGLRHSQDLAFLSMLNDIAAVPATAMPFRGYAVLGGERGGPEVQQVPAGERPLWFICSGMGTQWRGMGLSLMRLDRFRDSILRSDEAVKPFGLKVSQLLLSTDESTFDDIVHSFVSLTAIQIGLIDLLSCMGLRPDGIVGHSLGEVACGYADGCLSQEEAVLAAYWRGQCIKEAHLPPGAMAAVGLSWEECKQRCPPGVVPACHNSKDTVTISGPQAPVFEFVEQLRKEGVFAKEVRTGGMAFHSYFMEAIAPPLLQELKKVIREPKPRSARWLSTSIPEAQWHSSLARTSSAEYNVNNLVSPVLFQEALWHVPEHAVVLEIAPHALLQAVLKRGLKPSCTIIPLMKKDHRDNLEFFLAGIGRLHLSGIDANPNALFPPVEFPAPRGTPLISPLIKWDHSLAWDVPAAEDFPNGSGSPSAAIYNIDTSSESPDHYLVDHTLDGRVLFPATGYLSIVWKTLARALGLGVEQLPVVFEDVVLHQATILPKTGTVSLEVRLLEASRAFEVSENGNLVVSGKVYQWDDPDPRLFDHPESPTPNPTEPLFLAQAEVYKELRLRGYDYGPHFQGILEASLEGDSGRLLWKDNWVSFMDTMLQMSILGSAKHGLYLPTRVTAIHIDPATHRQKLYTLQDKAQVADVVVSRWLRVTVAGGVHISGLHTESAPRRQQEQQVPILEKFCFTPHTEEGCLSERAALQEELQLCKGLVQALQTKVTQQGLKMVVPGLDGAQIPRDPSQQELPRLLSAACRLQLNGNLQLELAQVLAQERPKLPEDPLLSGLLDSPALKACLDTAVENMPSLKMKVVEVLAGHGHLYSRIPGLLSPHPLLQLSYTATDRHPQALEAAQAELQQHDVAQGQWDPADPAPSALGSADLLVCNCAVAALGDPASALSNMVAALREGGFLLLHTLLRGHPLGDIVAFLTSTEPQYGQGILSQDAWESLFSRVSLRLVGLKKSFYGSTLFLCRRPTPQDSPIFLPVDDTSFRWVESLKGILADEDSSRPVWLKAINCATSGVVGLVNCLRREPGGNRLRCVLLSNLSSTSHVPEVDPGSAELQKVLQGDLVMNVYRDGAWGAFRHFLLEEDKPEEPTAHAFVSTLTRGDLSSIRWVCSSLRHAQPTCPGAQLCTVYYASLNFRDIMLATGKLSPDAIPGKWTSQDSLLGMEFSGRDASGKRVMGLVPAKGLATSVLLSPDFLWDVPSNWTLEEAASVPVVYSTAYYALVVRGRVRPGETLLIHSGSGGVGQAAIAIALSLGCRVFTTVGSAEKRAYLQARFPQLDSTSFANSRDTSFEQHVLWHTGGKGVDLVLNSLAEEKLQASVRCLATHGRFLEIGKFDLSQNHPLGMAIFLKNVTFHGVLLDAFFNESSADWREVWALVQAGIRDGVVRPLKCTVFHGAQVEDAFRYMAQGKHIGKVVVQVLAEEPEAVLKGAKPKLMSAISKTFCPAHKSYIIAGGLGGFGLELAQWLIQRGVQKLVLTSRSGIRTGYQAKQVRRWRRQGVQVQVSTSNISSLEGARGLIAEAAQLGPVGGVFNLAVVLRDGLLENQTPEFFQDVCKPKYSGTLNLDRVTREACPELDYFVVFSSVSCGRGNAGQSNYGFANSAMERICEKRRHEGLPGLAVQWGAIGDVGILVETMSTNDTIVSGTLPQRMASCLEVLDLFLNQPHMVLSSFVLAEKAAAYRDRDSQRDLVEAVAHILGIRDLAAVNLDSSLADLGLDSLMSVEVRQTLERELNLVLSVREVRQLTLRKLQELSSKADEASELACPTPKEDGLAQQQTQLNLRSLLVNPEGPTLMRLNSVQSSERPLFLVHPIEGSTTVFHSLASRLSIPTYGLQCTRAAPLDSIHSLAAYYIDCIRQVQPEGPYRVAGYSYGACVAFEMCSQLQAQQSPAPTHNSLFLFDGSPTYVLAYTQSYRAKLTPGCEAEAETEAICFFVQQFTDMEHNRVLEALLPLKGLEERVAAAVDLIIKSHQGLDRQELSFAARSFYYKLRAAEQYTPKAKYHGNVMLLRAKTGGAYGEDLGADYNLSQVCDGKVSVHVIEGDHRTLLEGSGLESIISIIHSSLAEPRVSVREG

[9] = (§2) Late stage assay provider results from the probe development effort to identify inhibitors of Protein Phosphatase Methylesterase 1 (PME-1): luminescence-based […] dose response assay to determine cytotoxicity of inhibitor compounds. [Related pubchem assays (depositor defined):AID2130, AID2143, AID2171, AID2174, AID2177, AID2232, AID2233, AID2291, AID2363, AID2365, AID2366, AID2368, AID2369, AID2371, AID463124, AID463130, AID463131, AID463132, AID463146, AID463149] Panel member name: Serum-free Media; format: toxicity
[10] = as §2, with “Fetal Calf Serum” for “Serum-free Media”; format: toxicity
[11] = biological target: Protein phosphatase methylesterase 1 (Homo sapiens, UniProt Q9Y570); test: Late stage assay provider results from the probe development effort to identify inhibitors of protein phosphatase methylesterase 1 (PME-1): Gel-based Activity-Based Protein Profiling (ABPP) IC50 Set 2. [Related pubchem assays (depositor defined):AID2130, AID2143, AID2171, AID2174, AID2177, AID2232, AID2233, AID2291, AID2363, AID2365, AID2366, AID2368, AID2369, AID2371, AID463090, AID463091]; format: functional
Fatty acid synthase [12] = biological target: T2, Fatty acid synthase; test: inhibition of human FAS-TE enzyme activity – biochemical, kinetic fluorescence intensity, dose response (AID 624326); format: functional;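 note: rate of fluorescence rise from hydrolysis of a fluorogenic O-methyl fluorescein ester substrate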
Mu-type opioid receptor = Mu-type opioid receptor (Homo sapiens, UniProt P35372); test: HTS Image-Based Screen for Agonists of the MOR Receptor. [Related pubchem assays (depositor defined):AID1777, AID1785, AID1786, AID2133]; format: functional;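 note: imaging of beta-arrestin GFP recruitment into spots after receptor activation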
[13] = biological target: T3, Delta-type opioid receptor (Homo sapiens, UniProt P41143); test: HTS Image-Based Screen for Antagonists of the DOR Receptor. [Related pubchem assays (depositor defined):AID1777, AID1785, AID1786, AID2133]; format: functional
T3 sequence (P41143 whole entry): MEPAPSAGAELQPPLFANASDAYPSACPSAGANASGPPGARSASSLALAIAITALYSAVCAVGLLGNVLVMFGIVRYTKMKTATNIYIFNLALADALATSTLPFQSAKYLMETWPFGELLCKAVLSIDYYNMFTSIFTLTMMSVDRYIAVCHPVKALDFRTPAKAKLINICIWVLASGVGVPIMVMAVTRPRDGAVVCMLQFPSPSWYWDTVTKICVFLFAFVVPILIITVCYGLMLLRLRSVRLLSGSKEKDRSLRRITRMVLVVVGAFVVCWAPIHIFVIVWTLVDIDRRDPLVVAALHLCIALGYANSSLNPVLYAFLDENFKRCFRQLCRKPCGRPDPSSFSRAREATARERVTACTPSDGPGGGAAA

[14] = biological target: T4, Kappa-type opioid receptor (Homo sapiens, UniProt P41145); format: functional
T4 sequence (P41145 whole entry): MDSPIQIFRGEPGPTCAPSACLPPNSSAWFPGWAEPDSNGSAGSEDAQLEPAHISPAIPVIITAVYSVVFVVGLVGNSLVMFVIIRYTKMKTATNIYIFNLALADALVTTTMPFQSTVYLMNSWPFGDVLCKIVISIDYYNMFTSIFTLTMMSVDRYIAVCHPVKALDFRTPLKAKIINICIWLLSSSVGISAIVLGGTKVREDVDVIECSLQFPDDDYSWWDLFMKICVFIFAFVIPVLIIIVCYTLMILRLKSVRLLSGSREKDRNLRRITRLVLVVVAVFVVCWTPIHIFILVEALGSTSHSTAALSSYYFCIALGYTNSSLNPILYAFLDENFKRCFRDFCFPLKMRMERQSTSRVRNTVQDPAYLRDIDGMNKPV

[15] = biological target: T4, Kappa-type opioid receptor; format: functional; remark: listed apart in the source
[16] = biological target: T3, Delta-type opioid receptor; test: HTS Image-Based Screen for Agonists of the DOR Receptor. [Related pubchem assays (depositor defined):AID1777, AID1786, AID2133]; format: functional
[17] = biological target: T5, Tyrosine-protein phosphatase non-receptor type 7 (Homo sapiens, UniProt P35236); format: functional
T5 sequence (P35236 whole entry): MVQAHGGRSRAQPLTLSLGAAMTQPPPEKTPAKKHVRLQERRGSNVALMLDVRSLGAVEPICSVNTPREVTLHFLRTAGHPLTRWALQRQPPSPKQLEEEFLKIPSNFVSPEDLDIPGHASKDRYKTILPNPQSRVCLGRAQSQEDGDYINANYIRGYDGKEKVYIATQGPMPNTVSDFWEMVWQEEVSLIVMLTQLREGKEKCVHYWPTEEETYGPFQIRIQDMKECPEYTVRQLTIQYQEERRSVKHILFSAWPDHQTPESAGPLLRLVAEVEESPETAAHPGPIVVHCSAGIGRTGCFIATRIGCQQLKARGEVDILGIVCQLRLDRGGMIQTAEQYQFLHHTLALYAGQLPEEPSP

[18] = biological target: T6, Tyrosine-protein phosphatase non-receptor type 22 (Homo sapiens, UniProt Q9Y2R2); format: functional
T6 sequence (Q9Y2R2 whole entry): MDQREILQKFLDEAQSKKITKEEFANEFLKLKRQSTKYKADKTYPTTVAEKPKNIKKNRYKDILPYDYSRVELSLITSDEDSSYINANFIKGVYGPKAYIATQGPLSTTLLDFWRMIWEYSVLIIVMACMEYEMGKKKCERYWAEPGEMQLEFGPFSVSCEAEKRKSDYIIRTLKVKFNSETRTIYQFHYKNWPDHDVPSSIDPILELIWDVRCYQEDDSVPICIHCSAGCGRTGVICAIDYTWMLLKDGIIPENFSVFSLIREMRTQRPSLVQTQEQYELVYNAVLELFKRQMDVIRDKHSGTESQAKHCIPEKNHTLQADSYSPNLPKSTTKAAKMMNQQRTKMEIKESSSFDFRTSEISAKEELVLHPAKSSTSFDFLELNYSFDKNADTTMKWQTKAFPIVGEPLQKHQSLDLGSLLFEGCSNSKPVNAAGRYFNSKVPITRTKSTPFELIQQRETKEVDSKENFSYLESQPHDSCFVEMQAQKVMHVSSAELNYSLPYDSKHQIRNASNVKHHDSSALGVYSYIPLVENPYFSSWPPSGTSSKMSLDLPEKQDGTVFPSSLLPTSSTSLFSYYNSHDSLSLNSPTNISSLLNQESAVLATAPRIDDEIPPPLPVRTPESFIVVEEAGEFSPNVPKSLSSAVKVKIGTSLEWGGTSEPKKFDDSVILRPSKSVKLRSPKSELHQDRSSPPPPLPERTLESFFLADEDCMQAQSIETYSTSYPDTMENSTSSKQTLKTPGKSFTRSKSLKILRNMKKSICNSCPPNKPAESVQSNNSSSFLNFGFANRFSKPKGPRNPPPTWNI

[19] = biological target: T6, Tyrosine-protein phosphatase non-receptor type 22; format: functional; remark: listed apart in the source
Cannabinoid receptor 1 [20] = biological target: T7, Cannabinoid receptor 1 (Homo sapiens, UniProt P21554); test: SAR analysis of antagonists of the Cannabinoid Receptor 1 using an Image-Based Assay - Set 4. [Related pubchem assays (depositor defined):AID2013, AID2026]; format: functional
T7 sequence (P21554 whole entry): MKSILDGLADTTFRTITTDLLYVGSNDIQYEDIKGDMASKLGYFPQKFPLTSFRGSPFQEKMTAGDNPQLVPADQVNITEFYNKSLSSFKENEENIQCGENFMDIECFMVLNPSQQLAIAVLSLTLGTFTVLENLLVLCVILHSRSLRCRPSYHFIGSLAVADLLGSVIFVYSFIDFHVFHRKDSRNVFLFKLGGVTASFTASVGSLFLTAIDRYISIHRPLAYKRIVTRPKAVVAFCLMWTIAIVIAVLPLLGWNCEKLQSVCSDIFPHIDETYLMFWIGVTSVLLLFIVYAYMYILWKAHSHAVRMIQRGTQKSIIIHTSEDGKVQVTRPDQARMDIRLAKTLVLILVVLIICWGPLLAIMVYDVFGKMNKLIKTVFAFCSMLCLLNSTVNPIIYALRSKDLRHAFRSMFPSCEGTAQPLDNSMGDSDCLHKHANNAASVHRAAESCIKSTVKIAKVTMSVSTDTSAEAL

Cannabinoid receptor 2 [21] = biological target: T8, Cannabinoid receptor 2 (Homo sapiens, UniProt P34972); test: SAR analysis of antagonists of the Cannabinoid Receptor 2 using an Image-Based Assay - Set 3. [Related pubchem assays (depositor defined):AID2013, AID2026]; format: functional
T8 sequence (P34972 whole entry): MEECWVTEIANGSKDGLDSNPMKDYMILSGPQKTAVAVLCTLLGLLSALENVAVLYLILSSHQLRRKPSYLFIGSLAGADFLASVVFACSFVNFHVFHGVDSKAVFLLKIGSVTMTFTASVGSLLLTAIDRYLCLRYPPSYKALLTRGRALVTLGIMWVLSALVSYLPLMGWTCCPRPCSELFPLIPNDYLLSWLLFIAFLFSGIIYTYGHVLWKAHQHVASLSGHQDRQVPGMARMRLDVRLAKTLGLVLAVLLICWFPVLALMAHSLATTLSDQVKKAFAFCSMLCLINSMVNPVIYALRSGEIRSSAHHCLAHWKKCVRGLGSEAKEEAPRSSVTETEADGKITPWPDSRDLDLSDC

[22] = biological target: T9, G-protein coupled receptor 35 (Homo sapiens, UniProt Q9HC97); test: SAR analysis of Agonists of the GPR35 Receptor using an Image-Based Assay - Set 4. [Related pubchem assays (depositor defined):AID2013, AID2026]; format: functional
T9 sequence (Q9HC97 whole entry): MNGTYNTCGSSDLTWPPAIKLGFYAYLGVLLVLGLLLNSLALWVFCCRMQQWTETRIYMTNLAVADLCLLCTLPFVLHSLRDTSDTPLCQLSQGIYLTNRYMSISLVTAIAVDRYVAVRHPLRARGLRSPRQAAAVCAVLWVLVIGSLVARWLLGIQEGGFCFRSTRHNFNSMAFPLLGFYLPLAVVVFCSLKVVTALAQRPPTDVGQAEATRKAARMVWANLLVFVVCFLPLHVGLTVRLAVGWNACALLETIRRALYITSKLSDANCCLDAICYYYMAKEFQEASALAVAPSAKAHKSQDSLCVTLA

Cannabinoid receptor 1 [23] = biological target: T7, Cannabinoid receptor 1; test: SAR analysis of agonists of the Cannabinoid Receptor 1 using an Image-Based Assay - Set 4. [Related pubchem assays (depositor defined):AID2013, AID2026]; format: functional
[24] = biological target: G-protein coupled receptor 55 (Homo sapiens, UniProt Q9Y2T6); test: SAR Analysis of Selective Antagonists of GPR55 using an Image-Based Assay - Set 4. [Related pubchem assays (depositor defined):AID2013, AID2026]; format: functional;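 note: antagonism of response to 5 µM lysophosphatidylinositol agonist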
G-protein coupled receptor 55, sequence (Q9Y2T6 whole entry): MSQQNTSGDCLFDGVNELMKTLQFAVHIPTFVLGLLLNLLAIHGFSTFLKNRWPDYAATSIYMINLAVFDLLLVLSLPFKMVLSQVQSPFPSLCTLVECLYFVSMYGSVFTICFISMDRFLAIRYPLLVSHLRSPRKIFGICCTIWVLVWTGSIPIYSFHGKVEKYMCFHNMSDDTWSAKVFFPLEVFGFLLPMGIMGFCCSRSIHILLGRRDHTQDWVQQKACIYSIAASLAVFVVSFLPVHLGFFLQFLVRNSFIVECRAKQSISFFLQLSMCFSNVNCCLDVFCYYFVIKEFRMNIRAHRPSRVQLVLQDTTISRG

[25] = biological target: T9, G-protein coupled receptor 35; test: SAR analysis of Antagonists of the GPR35 Receptor using an Image-Based Assay - Set 6. [Related pubchem assays (depositor defined):AID2013, AID2026]; format: functional
Cannabinoid receptor 2 [26] = biological target: T8, Cannabinoid receptor 2; test: SAR analysis of agonists of the Cannabinoid Receptor 2 using an Image-Based Assay - Set 3. [Related pubchem assays (depositor defined):AID2013, AID2026]; format: functional
[27] = biological target: T5, Tyrosine-protein phosphatase non-receptor type 7; test: inhibition of hematopoietic tyrosine phosphatase HePTP – biochemical, set 2, SAR follow-up (AID 449736); format: functional
J774.A1 = test: Confirmation of image-based Screening Assay for Inhibitors of Phagocytosis. [Related pubchem assays (depositor defined):AID1029, AID1643]; format: functional, cell-based; conditions: Mus musculus
[28] = HEK-293T viability loss after treatment – luminescence, T-cell screen hits, cytotoxicity control for TCR NF-kB inhibitor project, dose response (AID 489026); format: functional, cell-based;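 note: cells exposed to compound about 14 hours before the viability readout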
[29] = biological target: T6, Tyrosine-protein phosphatase non-receptor type 22; test: SAR LYP1 Fluorescent Assay using OMFP substrate for In Vitro dose response studies - Set 3. [Related pubchem assays (depositor defined):AID1779, AID1784, AID2140, AID2686]; format: functional
[30] = biological target: Tyrosine-protein phosphatase non-receptor type 12 (Homo sapiens, UniProt Q05209); test: SAR Selectivity Analysis of small molecule inhibitors of PEST using pCAP in a fluorescence assay. [Related pubchem assays (depositor defined):AID1779, AID1784, AID2135]; format: functional
[31] = biological target: T6, Tyrosine-protein phosphatase non-receptor type 22; test: inhibition of lymphoid tyrosine phosphatase LYP – biochemical, pCAP fluorogenic substrate, fluorescence, set 3, SAR follow-up (AID 449727); format: functional

SMILES: Cc1ccccc1Nc1nc(-c2ccccc2)c(C(=O)Nc2cccnc2)s1
- EC50 [1]: 12.6 µM (inactive)
- EC50 [2]: 11.6 µM (not active)
- EC50 [3]: > 79.4 µM (not active)

SMILES: N#Cc1c(-c2ccccc2)ccn(Cc2cccc(Cl)c2)c1=O
- IC50 (Exodeoxyribonuclease V): > 119 µM (inactive)
- IC50 [4]: > 119 µM (inactive)

SMILES: NS(=O)(=O)c1ccc2c(c1)oc(=O)c1cc(S(N)(=O)=O)ccc12
- IC50 [5]: 11.8 µM (active)
- IC50 [6]: 2.51 µM (active)
- IC50 [7]: 7.73 µM (active)

SMILES: COC(=O)N1C(=O)[C@](c2ccccc2)(C2CCCC2)N1C(=O)OC
- IC50 (Fatty acid synthase [8]): 0.884 µM (active)
- CC50 [9]: > 50 µM (inactive)
- CC50 [10]: > 50 µM (inactive)
- IC50 [11]: 0.01 µM (active)
- IC50 (Fatty acid synthase [12]): 0.715 µM (active)

SMILES: O=C1C2ON(c3ccccc3)C(c3cccnc3)C2C(=O)N1c1ccc(Cl)c(Cl)c1 (stereo unspecified)
- IC50 (Fatty acid synthase [8]): 9.19 µM (active)
- EC50 (Mu-type opioid receptor): > 32 µM (inactive)
- IC50 [13]: > 32 µM (inactive)
- EC50 [14]: > 35 µM
- EC50 [15]: 26.4 µM
- EC50 [16]: > 32 µM (inactive)
- IC50 (Fatty acid synthase [12]): 8.26 µM (active)

SMILES: CSc1nsc(SCC(=O)Nc2cccc(C(C)=O)c2)n1
- IC50 [17]: > 79.4 µM (inactive)
- IC50 [18]: > 79.4 µM (inactive)
- IC50 [19]: > 79.4 µM (inactive)

SMILES: CNC(=O)c1cc2c(=O)n3ccccc3nc2n(C2CCCC2)c1=N
- IC50 (Cannabinoid receptor 1 [20]): > 32 µM (inactive)
- IC50 (Cannabinoid receptor 2 [21]): > 32 µM (inactive)
- EC50 [22]: > 32 µM (inactive)
- EC50 (Cannabinoid receptor 1 [23]): > 32 µM (inactive)
- IC50 [24]: 5.92 µM (active)
- IC50 [25]: > 32 µM (inactive)
- EC50 (Cannabinoid receptor 2 [26]): 2.52 µM (active)

SMILES: CCOC(=O)C(C)Oc1cccc2c(=O)n(CC(=O)NCc3ccc4c(c3)OCO4)ccc12 (stereo unspecified)
- IC50 [27]: 11.4 µM (active)
- IC50 (J774.A1): 4.93 µM (active)
- IC50 [28]: > 80 µM (inactive)
- IC50 [29]: > 100 µM (inactive)
- IC50 [30]: > 100 µM (inactive)
- IC50 [31]: > 100 µM (inactive)
